Measured values as given in ChEMBL document CHEMBL1201862, “PubChem BioAssay data set” (2004).
Activity calls are given as the source filed them.

How the values were obtained:
[1] = biological target: T1, High affinity choline transporter 1 (Homo sapiens, UniProt Q9GZV3); experiment: CHT inhibitors, dose response, cell-based, 5-point CRC, membrane potential dye (AID 504840); assay type: functional
T1 sequence (Q9GZV3 whole entry): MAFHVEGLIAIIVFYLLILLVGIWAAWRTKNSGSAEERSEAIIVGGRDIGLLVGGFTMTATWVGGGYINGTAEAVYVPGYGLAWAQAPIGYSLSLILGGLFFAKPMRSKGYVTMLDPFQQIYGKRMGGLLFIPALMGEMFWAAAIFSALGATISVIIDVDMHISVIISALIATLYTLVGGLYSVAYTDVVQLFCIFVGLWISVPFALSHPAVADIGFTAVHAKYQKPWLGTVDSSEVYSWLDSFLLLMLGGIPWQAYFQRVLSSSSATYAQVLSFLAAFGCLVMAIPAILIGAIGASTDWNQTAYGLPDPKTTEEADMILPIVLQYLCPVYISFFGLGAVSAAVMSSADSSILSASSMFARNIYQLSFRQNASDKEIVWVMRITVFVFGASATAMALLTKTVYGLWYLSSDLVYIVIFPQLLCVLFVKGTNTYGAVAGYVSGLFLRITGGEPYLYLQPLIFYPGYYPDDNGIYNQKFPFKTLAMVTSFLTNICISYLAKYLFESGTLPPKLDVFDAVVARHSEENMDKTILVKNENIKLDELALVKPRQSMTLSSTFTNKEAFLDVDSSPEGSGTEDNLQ

HEK293 [2] = experiment: cells; conditions: Homo sapiens
[3] = biological target: Luciferin 4-monooxygenase (Photinus pyralis, UniProt P08659); experiment: firefly luciferase enzyme inhibitors, dose response, biochemical, luminescence (AID 1891)
[4] = Luminescence Cell-Based Dose Confirmation HTS to Identify Inhibitors of Platelet Dense Granule Release. [Related pubchem assays: 1663 (Primary HTS), 1678 (Summary of Project)]; assay type: functional
HEK293 [5] = experiment: cells; conditions: Homo sapiens; remark: listed apart in the source
[6] = biological target: T1, High affinity choline transporter 1; experiment: CHT inhibitors, dose response, cell-based, 10-point CRC, membrane potential dye (AID 588401); assay type: functional;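 further: membrane potential dye fluorescence of choline-evoked depolarization via CHT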

Chain of Luciferin 4-monooxygenase (P08659 whole entry): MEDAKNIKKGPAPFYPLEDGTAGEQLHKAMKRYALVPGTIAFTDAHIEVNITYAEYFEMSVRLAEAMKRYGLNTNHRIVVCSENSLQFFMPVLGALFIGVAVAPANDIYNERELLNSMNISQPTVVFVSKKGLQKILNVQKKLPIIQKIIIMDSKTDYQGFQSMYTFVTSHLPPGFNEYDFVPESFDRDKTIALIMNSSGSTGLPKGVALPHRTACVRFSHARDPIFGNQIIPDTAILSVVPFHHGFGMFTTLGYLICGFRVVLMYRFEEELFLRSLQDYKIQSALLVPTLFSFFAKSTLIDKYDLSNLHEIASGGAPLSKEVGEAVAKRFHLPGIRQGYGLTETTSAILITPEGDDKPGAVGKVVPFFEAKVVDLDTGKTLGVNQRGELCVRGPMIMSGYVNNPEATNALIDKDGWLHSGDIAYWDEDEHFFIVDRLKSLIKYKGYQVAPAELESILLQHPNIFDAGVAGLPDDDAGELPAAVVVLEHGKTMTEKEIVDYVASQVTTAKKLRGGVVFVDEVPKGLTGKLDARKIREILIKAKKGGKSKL

SMILES: C=C[C@@]1(C)CC(=O)[C@]2(O)[C@@]3(C)[C@@H](O)CCC(C)(C)[C@@H]3[C@H](OC(C)=O)[C@H](O)[C@@]2(C)O1
- IC50 [1]: 1.52 µM (active)
- EC50 (HEK293 [2]): > 59.7 µM (inactive)
- EC50 [3]: > 112 µM (not active)
- EC50 [4]: 4.26 µM (active)
- EC50 (HEK293 [5]): > 59.7 µM (inactive)
- IC50 [6]: 0.815 µM (active)
